The conditions of series [1]: mouse, in vivo, po.
Description: Induction of catalepsy in po dosed mouse by Horizontal grid and elevated bar test
Series [2] is described as follows: Therapeutic index, ratio of ED50 for induction of catalepsy in po dosed mouse to ED50 for antipsychotic activity in po dosed mouse assessed as reduction in MK-801-induced hyperlocomotor activity. The series is classed as toxicity, organism-based. As to conditions: in vivo, read-out: Ratio ED50.
Series [3] is described as follows: Therapeutic index, ratio of ED50 for induction of catalepsy in po dosed mouse to ED50 for antipsychotic activity in po dosed mouse assessed as suppression of apomorphine-induced climbing. It counts as toxicity, organism-based. As to conditions: in vivo, read-out: Ratio ED50.
The species entered for series [4] is Mus musculus. Description: animal or person. The following applies: po.
Description: Antipsychotic activity in po dosed mouse assessed as reduction in MK-801-induced hyperlocomotor activity
For series [5], the species on record is Mus musculus. Briefly: animal or person. As to conditions: po. This is another data set of the same source.
Description: Antipsychotic activity in po dosed mouse assessed as suppression of apomorphine-induced climbing behaviour
Series [6] concerns the target T1, 5-hydroxytryptamine receptor 1A (Homo sapiens, UniProt P08908).
T1 sequence (P08908 whole entry): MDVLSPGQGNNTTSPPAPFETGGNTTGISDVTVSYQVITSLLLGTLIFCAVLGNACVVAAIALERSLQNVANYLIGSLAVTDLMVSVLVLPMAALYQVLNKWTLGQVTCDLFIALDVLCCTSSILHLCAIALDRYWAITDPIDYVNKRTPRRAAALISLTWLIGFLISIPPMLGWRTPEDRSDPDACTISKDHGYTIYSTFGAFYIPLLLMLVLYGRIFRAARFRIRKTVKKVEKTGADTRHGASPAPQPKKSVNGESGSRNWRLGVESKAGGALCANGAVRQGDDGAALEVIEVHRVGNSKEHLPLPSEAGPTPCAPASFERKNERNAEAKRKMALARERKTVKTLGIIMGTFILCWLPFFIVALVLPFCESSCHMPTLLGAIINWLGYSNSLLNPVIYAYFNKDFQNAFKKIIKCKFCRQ
Description: Antagonist activity at 5-HT1A receptor (unknown origin). It counts as functional.

For series [7], the target named is T2, D(2) dopamine receptor (Homo sapiens, UniProt P14416).
Description: Binding affinity to dopamine D2 receptor (unknown origin)
Series [8] addresses 5-hydroxytryptamine receptor 6 (Homo sapiens, UniProt P50406).
Series [9] addresses T2, D(2) dopamine receptor. Description: Antagonist activity at D2 receptor (unknown origin). The series is classed as functional.
Series [10] concerns the target T1, 5-hydroxytryptamine receptor 1A.
The target in series [11] is T3, 5-hydroxytryptamine receptor 2A (Homo sapiens, UniProt P28223).
The target in series [12] is T3, 5-hydroxytryptamine receptor 2A. Briefly: Antagonist activity at 5-HT2A receptor (unknown origin). It counts as functional.
The target of the next series is Histamine H1 receptor (Homo sapiens, UniProt P35367). The series is classed as ADME.
Series [13] addresses T4, Alpha-1A adrenergic receptor (Homo sapiens, UniProt P35348).
T4 sequence (P35348 whole entry): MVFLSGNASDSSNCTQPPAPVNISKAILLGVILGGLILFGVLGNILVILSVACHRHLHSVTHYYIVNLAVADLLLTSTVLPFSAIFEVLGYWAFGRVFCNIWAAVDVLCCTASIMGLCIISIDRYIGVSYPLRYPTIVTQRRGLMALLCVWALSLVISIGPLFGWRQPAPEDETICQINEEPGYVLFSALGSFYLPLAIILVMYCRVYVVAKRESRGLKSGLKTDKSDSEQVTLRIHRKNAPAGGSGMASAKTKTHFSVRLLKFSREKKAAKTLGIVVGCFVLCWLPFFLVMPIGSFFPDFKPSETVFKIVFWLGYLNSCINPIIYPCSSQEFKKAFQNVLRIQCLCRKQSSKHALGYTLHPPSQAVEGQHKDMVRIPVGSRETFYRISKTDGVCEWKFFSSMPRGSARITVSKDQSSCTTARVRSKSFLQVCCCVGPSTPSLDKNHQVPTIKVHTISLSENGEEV
Description: Binding affinity to alpha1 adrenoceptor (unknown origin)

In series [14] the target is Voltage-gated inwardly rectifying potassium channel KCNH2 (Homo sapiens, UniProt Q12809).
Description: Inhibition of human ERG by automated patch method relative to control
The target of series [15] is T5, 5-hydroxytryptamine receptor 2C (Homo sapiens, UniProt P28335).
T5 sequence (P28335 whole entry): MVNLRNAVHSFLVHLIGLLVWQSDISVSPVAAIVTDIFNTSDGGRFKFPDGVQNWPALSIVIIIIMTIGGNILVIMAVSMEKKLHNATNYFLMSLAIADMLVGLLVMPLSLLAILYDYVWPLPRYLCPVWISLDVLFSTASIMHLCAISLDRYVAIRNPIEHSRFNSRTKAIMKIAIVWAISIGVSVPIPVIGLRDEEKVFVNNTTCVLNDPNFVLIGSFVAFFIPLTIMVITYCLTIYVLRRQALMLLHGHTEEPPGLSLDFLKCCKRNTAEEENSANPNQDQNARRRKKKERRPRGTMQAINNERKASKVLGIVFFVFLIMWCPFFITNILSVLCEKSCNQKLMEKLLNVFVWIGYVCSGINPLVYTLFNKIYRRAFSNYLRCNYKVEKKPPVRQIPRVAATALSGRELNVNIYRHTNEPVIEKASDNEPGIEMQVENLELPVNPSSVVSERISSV

T2 sequence (P14416 whole entry): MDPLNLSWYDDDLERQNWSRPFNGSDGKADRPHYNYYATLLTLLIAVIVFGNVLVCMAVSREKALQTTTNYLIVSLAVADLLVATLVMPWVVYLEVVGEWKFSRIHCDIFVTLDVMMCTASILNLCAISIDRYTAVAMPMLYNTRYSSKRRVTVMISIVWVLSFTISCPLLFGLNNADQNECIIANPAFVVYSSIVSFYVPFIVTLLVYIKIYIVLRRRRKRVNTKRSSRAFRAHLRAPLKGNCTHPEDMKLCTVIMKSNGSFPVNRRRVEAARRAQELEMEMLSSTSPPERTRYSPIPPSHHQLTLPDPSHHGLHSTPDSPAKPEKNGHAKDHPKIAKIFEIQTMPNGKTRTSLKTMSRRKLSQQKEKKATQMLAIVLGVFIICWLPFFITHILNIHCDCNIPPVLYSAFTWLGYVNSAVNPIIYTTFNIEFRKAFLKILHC
T3 sequence (P28223 whole entry): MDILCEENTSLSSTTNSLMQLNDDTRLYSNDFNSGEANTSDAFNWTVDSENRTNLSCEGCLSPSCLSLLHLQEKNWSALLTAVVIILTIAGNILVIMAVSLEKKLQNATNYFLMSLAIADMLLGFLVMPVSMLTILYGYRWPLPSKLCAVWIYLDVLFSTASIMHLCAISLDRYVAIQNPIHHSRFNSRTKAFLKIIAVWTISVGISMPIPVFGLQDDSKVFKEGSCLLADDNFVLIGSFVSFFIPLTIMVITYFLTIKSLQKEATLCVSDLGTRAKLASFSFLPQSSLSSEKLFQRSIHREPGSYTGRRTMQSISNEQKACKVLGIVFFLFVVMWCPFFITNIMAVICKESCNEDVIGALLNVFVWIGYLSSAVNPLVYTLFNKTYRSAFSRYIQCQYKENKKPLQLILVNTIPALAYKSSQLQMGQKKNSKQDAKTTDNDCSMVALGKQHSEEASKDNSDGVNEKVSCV
Chain of Voltage-gated inwardly rectifying potassium channel KCNH2 (Q12809 whole entry): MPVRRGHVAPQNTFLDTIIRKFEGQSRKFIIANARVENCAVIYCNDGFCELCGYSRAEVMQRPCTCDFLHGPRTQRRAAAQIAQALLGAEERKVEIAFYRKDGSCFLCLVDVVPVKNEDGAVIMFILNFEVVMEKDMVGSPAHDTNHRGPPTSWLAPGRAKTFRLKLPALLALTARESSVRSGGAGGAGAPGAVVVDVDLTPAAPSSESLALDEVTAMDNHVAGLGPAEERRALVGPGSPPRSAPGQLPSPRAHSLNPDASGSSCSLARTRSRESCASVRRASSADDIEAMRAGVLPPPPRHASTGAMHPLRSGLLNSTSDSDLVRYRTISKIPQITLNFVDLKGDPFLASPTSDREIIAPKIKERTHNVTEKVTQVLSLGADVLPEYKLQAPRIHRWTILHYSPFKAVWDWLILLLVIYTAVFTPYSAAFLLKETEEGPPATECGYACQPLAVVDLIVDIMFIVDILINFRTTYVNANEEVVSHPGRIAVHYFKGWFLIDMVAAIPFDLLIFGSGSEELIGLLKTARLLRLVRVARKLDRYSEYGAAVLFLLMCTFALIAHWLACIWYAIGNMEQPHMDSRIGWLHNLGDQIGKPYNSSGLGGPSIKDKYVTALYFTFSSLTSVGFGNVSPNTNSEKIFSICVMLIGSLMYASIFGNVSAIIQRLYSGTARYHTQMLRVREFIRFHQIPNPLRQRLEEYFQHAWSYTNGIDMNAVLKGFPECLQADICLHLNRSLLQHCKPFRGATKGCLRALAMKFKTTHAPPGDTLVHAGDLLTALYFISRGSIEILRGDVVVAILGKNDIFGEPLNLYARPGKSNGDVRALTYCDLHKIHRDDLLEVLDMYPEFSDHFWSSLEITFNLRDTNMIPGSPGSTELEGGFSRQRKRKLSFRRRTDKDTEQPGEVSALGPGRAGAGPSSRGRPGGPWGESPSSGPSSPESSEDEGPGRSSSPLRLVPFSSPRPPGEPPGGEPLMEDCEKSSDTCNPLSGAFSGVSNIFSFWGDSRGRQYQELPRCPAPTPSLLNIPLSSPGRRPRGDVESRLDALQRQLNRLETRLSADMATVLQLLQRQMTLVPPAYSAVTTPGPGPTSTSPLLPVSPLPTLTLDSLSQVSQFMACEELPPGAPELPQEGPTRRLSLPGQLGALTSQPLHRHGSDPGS
Chain of 5-hydroxytryptamine receptor 6 (P50406 whole entry): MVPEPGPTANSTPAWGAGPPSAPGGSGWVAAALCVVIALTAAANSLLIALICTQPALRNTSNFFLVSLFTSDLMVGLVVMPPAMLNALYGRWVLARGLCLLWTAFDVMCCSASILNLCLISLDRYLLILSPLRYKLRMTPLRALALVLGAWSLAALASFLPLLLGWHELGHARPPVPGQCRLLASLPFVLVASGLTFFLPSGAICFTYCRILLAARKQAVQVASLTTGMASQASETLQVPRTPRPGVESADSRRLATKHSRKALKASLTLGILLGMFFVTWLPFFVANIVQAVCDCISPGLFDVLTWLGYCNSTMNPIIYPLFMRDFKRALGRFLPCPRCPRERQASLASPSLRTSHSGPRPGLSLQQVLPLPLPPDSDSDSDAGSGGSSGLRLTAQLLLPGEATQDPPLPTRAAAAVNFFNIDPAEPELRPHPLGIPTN
Chain of Histamine H1 receptor (P35367 whole entry): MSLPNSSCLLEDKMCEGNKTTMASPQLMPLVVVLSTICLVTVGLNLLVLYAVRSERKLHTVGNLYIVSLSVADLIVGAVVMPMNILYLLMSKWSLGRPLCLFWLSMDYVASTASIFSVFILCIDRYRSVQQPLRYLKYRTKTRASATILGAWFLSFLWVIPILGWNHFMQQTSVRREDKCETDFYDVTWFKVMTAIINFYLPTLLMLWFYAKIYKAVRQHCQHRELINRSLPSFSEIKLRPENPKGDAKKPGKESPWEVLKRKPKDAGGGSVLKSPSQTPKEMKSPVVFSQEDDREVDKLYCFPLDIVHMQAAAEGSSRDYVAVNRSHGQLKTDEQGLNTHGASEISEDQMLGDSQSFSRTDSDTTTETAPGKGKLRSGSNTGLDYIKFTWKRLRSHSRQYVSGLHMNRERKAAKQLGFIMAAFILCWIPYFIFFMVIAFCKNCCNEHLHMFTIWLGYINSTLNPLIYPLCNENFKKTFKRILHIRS
Description for Histamine H1 receptor: Binding affinity to histamine H1 receptor (unknown origin)

In the case of `O=C(CCCN1CCC(O)(c2ccc(Cl)cc2)CC1)c1ccc(F)cc1` [HALOPERIDOL], the ED50 (in general, the dose that gives a 50% effect, or the effect in half of the subjects) in series [1] was 0.3 mg/kg; in the series filed under Mus musculus [4], 0.1 mg/kg; in the series filed under Mus musculus [5], 0.09 mg/kg. The values for the selectivity ratio in [2] and in series [3] were 2.9 and 3.6, respectively.

For the molecule `Fc1ccc2c(C3CCN(CCCOc4ccc(CCN5CCOCC5)cc4)CC3)noc2c1`, the IC50 (in general, the midpoint of a concentration-inhibition curve) was 247 nM in [6], 11.3 nM against D(2) dopamine receptor [9], 186 nM in [12] and 2410 nM in series [14]. The Ki (commonly the dissociation constant of the complex between target and ligand, obtained from inhibition or displacement) on D(2) dopamine receptor [7] is 10.5 nM; in series [8] it was 141 nM; in series [10] it was 5.6 nM; in [11], 8.4 nM; at Histamine H1 receptor, 968 nM; in series [13] it was 438 nM. The molecule further registered a Ki in [15] of 610 nM.

(Values after ChEMBL document CHEMBL4819047, “Discovery of a new class of multi-target heterocycle piperidine derivatives as potential antipsychotics with pro-cognitive effect” (Bioorg Med Chem Lett, 2021).)
